Measured values from ChEMBL document CHEMBL5226375, “Synthesis and Comprehensive in Vivo Activity Profiling of Olean-12-en-28-ol, 3β-Pentacosanoate in Experimental Autoimmune Encephalomyelitis: A Natural Remyelinating and Anti-Inflammatory Agent” (J Nat Prod, 2023).
Calls of active or inactive are those of the source. No cut-off for these calls is given here.

Legend:
Mus musculus [1] = test: Anti-inflammatory activity against MOG35-55-induced experimental autoimmune encephalomyelitis C57BL/6 mouse model assessed as fold change in HIF1A gene expression in brain at 0.3 mg/kg/day, ig for 14 days starting from 12th day of immunization by RT-qPCR analysis relative to control; assay type: functional; details: time 14 day
Mus musculus [2] = test: Anti-inflammatory activity against MOG35-55-induced experimental autoimmune encephalomyelitis C57BL/6 mouse model assessed as fold change in CD4 gene expression in brain at 0.3 mg/kg/day, ig for 14 days starting from 12th day of immunization by RT-qPCR analysis relative to control; assay type: functional; details: time 14 day
Mus musculus [3] = test: Anti-inflammatory activity against MOG35-55-induced experimental autoimmune encephalomyelitis C57BL/6 mouse model assessed as fold change in TGFB1 gene expression in brain at 0.3 mg/kg/day, ig for 14 days starting from 12th day of immunization by RT-qPCR analysis relative to control; assay type: functional; details: time 14 day
Mus musculus [4] = test: Anti-inflammatory activity against MOG35-55-induced experimental autoimmune encephalomyelitis C57BL/6 mouse model assessed as fold change in MMP9 gene expression in brain at 0.3 mg/kg/day, ig for 14 days starting from 12th day of immunization by RT-qPCR analysis relative to control; assay type: functional; details: time 14 day
Mus musculus [5] = test: Anti-inflammatory activity against MOG35-55-induced experimental autoimmune encephalomyelitis C57BL/6 mouse model assessed as fold change in CXCL10 gene expression in brain at 0.15 mg/kg/day, ig for 14 days starting from 12th day of immunization by RT-qPCR analysis relative to control; assay type: functional; details: time 14 day
Mus musculus [6] = test: Anti-inflammatory activity against MOG35-55-induced experimental autoimmune encephalomyelitis C57BL/6 mouse model assessed as fold change in PLP gene expression in brain at 0.15 mg/kg/day, ig for 14 days starting from 12th day of immunization by RT-qPCR analysis relative to control; assay type: functional; details: time 14 day
Mus musculus [7] = test: Anti-inflammatory activity against MOG35-55-induced experimental autoimmune encephalomyelitis C57BL/6 mouse model assessed as fold change in C1S gene expression in brain at 0.15 mg/kg/day, ig for 14 days starting from 12th day of immunization by RT-qPCR analysis relative to control; assay type: functional; details: time 14 day
Mus musculus [8] = test: Anti-inflammatory activity against MOG35-55-induced experimental autoimmune encephalomyelitis C57BL/6 mouse model assessed as fold change in MMP9 gene expression in brain at 0.15 mg/kg/day, ig for 14 days starting from 12th day of immunization by RT-qPCR analysis relative to control; assay type: functional; details: time 14 day
Mus musculus [9] = test: Anti-inflammatory activity against MOG35-55-induced experimental autoimmune encephalomyelitis C57BL/6 mouse model assessed as fold change in APP gene expression in brain at 0.15 mg/kg/day, ig for 14 days starting from 12th day of immunization by RT-qPCR analysis relative to control; assay type: functional; details: time 14 day
Mus musculus [10] = test: Anti-inflammatory activity against MOG35-55-induced experimental autoimmune encephalomyelitis C57BL/6 mouse model assessed as methylation of CpG sites of TGFB1 gene promoter in brain at […], ig for 14 days starting from 12th day of immunization by PCR analysis (reference value: 18.3 +/-4%); assay type: functional; details: time 14 day
Mus musculus [11] = test: Anti-inflammatory activity against MOG35-55-induced experimental autoimmune encephalomyelitis C57BL/6 mouse model assessed as fold change in CXCL9 gene expression in brain at 600 mg/kg/day, ig for 14 days starting from 12th day of immunization by RT-qPCR analysis relative to control; assay type: functional; details: time 14 day
Mus musculus [12] = test: Anti-inflammatory activity against MOG35-55-induced experimental autoimmune encephalomyelitis C57BL/6 mouse model assessed as fold change in NFKB gene expression in brain at 600 mg/kg/day, ig for 14 days starting from 12th day of immunization by RT-qPCR analysis relative to control; assay type: functional; details: time 14 day
Mus musculus [13] = test: Anti-inflammatory activity against MOG35-55-induced experimental autoimmune encephalomyelitis C57BL/6 mouse model assessed as fold change in TNF-alpha gene expression in brain at 600 mg/kg/day, ig for 14 days starting from 12th day of immunization by RT-qPCR analysis relative to control; assay type: functional; details: time 14 day
Mus musculus [14] = test: Anti-inflammatory activity against MOG35-55-induced experimental autoimmune encephalomyelitis C57BL/6 mouse model assessed as fold change in PLP gene expression in brain at 600 mg/kg/day, ig for 14 days starting from 12th day of immunization by RT-qPCR analysis relative to control; assay type: functional; details: time 14 day
Mus musculus [15] = test: Anti-inflammatory activity against MOG35-55-induced experimental autoimmune encephalomyelitis C57BL/6 mouse model assessed as fold change in MMP9 gene expression in brain at 600 mg/kg/day, ig for 14 days starting from 12th day of immunization by RT-qPCR analysis relative to control; assay type: functional; details: time 14 day
Mus musculus [16] = test: Anti-inflammatory activity against MOG35-55-induced experimental autoimmune encephalomyelitis C57BL/6 mouse model assessed as fold change in GFAP gene expression in brain at 600 mg/kg/day, ig for 14 days starting from 12th day of immunization by RT-qPCR analysis relative to control; assay type: functional; details: time 14 day
Mus musculus [17] = test: Anti-inflammatory activity against MOG35-55-induced experimental autoimmune encephalomyelitis C57BL/6 mouse model assessed as fold change in YWHAH gene expression in brain at 600 mg/kg/day, ig for 14 days starting from 12th day of immunization by RT-qPCR analysis relative to control; assay type: functional; details: time 14 day
Mus musculus [18] = test: Anti-inflammatory activity against MOG35-55-induced experimental autoimmune encephalomyelitis C57BL/6 mouse model assessed as fold change in CXCL9 gene expression in brain at 300 mg/kg/day, ig for 14 days starting from 12th day of immunization by RT-qPCR analysis relative to control; assay type: functional; details: time 14 day
Mus musculus [19] = test: Anti-inflammatory activity against MOG35-55-induced experimental autoimmune encephalomyelitis C57BL/6 mouse model assessed as fold change in PLP gene expression in brain at 300 mg/kg/day, ig for 14 days starting from 12th day of immunization by RT-qPCR analysis relative to control; assay type: functional; details: time 14 day
Mus musculus [20] = test: Anti-inflammatory activity against MOG35-55-induced experimental autoimmune encephalomyelitis C57BL/6 mouse model assessed as fold change in IL6 gene expression in brain at 300 mg/kg/day, ig for 14 days starting from 12th day of immunization by RT-qPCR analysis relative to control; assay type: functional; details: time 14 day
Mus musculus [21] = test: Anti-inflammatory activity against MOG35-55-induced experimental autoimmune encephalomyelitis C57BL/6 mouse model assessed as fold change in GFAP gene expression in brain at 300 mg/kg/day, ig for 14 days starting from 12th day of immunization by RT-qPCR analysis relative to control; assay type: functional; details: time 14 day
Mus musculus [22] = test: Anti-inflammatory activity against MOG35-55-induced experimental autoimmune encephalomyelitis C57BL/6 mouse model assessed as reduction in MMP9 protein expression in brain at 300 to 600 mg/kg/day, ig for 14 days starting from 12th day of immunization by western blot analysis relative to control; assay type: functional; details: dose 300-600 mg/kg/day, time 14 day
Mus musculus [23] = test: Anti-inflammatory activity against MOG35-55-induced experimental autoimmune encephalomyelitis C57BL/6 mouse model assessed as reduction in serum chemokines level by measuring reduction in CXCL1 level at 600 mg/kg/day, ig for 14 days starting from 12th day of immunization by ELISA; assay type: functional, organism-based; details: time 14.0 day

CCCCCCCCc1ccc(CCC(N)(CO)CO)cc1 [FINGOLIMOD]
fold change (FC) (Mus musculus [1]): 1.86
fold change (FC) (Mus musculus [2]): 2.12
fold change (FC) (Mus musculus [3]): 10.7
fold change (FC) (Mus musculus [4]): 4.44
fold change (FC) (Mus musculus [5]): 5.21
fold change (FC) (Mus musculus [6]): 1.54
fold change (FC) (Mus musculus [7]): 1.91
fold change (FC) (Mus musculus [8]): 2.43
fold change (FC) (Mus musculus [9]): 1.77
Activity (Mus musculus [10]): 35.1%

CCCCCCCCCCCCCCCCCCCCCCCCC(=O)O[C@H]1CC[C@]2(C)[C@H]3CC=C4[C@@H]5CC(C)(C)CC[C@]5(CO)CC[C@@]4(C)[C@]3(C)CC[C@H]2C1(C)C
fold change (FC) (Mus musculus [11]): -1.14
fold change (FC) (Mus musculus [12]): 1.46
fold change (FC) (Mus musculus [13]): 1.52
fold change (FC) (Mus musculus [14]): 1.14
fold change (FC) (Mus musculus [15]): 2.8
fold change (FC) (Mus musculus [16]): 1.79
fold change (FC) (Mus musculus [17]): -1.78
fold change (FC) (Mus musculus [18]): 1.63
fold change (FC) (Mus musculus [19]): 1.9
fold change (FC) (Mus musculus [20]): 3.18
fold change (FC) (Mus musculus [21]): 1.17
fold change (FC) (Mus musculus [22]): 2
Activity (Mus musculus [23]): Active
